US4031239A, “Cyclopropanecarboxylates for systemic control of ectoparasites” (American Cyanamid Company, priority 1975, dated 1977)

Legend:
Stomoxys calcitrans = test: Animal systemic insecticidal activity, flies fed on mice dosed by gavage (Example 3); format: in vivo, Stomoxys calcitrans (stable flies) fed on mice; details: 18 hours feeding, mortality at 24 hours
Description: To determine the effectiveness of the compounds of the invention as animal systemic insecticidal agents, test compounds are mixed in 10% acetone-90% sesame oil and administered by gavage to mice each at 25, 100 and/or 400 mg/kg of animal body weight.
Adult, one day old, unfed flies Stomoxys calcitrans are then exposed to the mice for 18 hours to permit them to feed on said mice. Mortality counts are made at 24 hours and data obtained are reported below as percent control of stable flies.

Rhipicephalus sanguineus = test: Systemic ixodicidal activity, daily oral dosing of tick-infested guinea pigs (Example 1); format: in vivo
Source text: (§1) Albino guinea pigs are housed individually and fed guinea pig chow and water ad libitum. One leaf of cabbage per day is also given to each guinea pig.
The diet employed in these tests is as follows:
Crude protein not less than 18.0%
Crude fat not less than 4.0%
Crude fiber not more than 16.0%
Added minerals not more than 3.5%
and consists of the following ingredients: Ground wheat, ground yellow corn, dried skimmed milk, soybean meal, dehydrated alfalfa meal, cane molasses, wheat middlings, animal fat preserved with BHA, vitamin B12 supplement; riboflavin supplement, cholin chloride, calcium pantothenate, thiamin, niacin, folic acid, ascorbic acid, vitamin A supplement, D activated sterol (source of Vitamin D3), methionine hydroxy analogue calcium, pyridoxine hydrochloride, vitamin E supplement, dicalcium phosphate, calcium carbonate, iodized salt, copper oxide sulfate, iron sulfate, iron oxide, manganous oxide, cobalt carbonate, zinc oxide.
(§2) To the shaved back of each guinea pig, a capsule made from a 2 inch spud gasket, with the base ground down to provide greater flexibility, is glued using 3M adhesive no. 8001. Five male and five female adult Rhipicephalus sanguineus ticks are placed inside the capsule and allowed to attach to the guinea pig. A gauze material is fastened over the top of the gasket to prevent the ticks from escaping.
(§3) The guinea pigs are given a daily oral dose by gelatin capsule of either 400 or 100 mg per kilogram body weight of the test compound. […]

Dermacentor variabilis = test: Systemic ixodicidal activity, daily oral dosing of tick-infested guinea pigs (Example 2); format: in vivo
[1] = test system: Rhipicephalus sanguineus; Dermacentor variabilis; test: Systemic ixodicidal activity by the methods of the Examples, stated for both tick species together; format: in vivo; details: trans and cis; no figures given
Source text: as §1, §2, §3

[2] = Rhipicephalus sanguineus, in Cavia porcellus, po, read-out: % Tick Mortality

CC1(C)C(C=C(Cl)Cl)C1C(=O)OC(C#N)c1cccc(Oc2ccccc2)c1 (stereo not shown) was tested, and the “% Control of Stable Flies” value (Stomoxys calcitrans; 25 mg/kg by gavage) was 63%, the “% Control of Stable Flies” value (Stomoxys calcitrans; 100 mg/kg by gavage) was 80% and the “% Control of Stable Flies” value (Stomoxys calcitrans; 400 mg/kg by gavage) was 96%.
For CC(C)=CC1C(C(=O)OC(C#N)c2cccc(Oc3ccccc3)c2)C1(C)C (stereo not shown), the “% Control of Stable Flies” value (Stomoxys calcitrans; 25 mg/kg by gavage) was 30%, the “% Control of Stable Flies” value (Stomoxys calcitrans; 100 mg/kg by gavage) was 80% and the “% Control of Stable Flies” value (Stomoxys calcitrans; 400 mg/kg by gavage) was 100%.
CC1(C)C(C=C(Cl)Cl)C1C(=O)OCc1cccc(Oc2ccccc2)c1 (mixture of isomers) [Cyclopropanecarboxylic acid, 3-(2,2-dichlorovinyl)-2,2-dimethyl-m-phenoxybenzyl ester] was tested, and the mortality at 100 mg/kg (Rhipicephalus sanguineus; [2]) was 80%, the mortality at 400 mg/kg (Rhipicephalus sanguineus; [2]) was 100% and the “time after initial treatment during which ticks do not appear to be affected (then moribund and die shortly thereafter)” value (Rhipicephalus sanguineus; daily oral dose 400 or 100 mg/kg, guinea pigs, slight color changes and some reduction in size excepted) was “about 3 days”.
With CC1(C)C(C=C(Cl)Cl)C1C(=O)OCc1cccc(Oc2ccccc2)c1 (stereo not shown) [Cyclopropanecarboxylic acid, 3-(2,2-dichlorovinyl)-2,2-dimethyl-, m-phenoxybenzyl ester] the “susceptibility of ticks to the test compound” value (Dermacentor variabilis; Dermacentor variabilis, compared with Example 1 (Rhipicephalus sanguineus)) was “somewhat less susceptible”, the mortality at 100 mg/kg (Dermacentor variabilis; Dermacentor variabilis, in Cavia porcellus, daily oral dose 100 mg/kg, guinea pigs) was 0% and the mortality at 400 mg/kg (Dermacentor variabilis; Dermacentor variabilis, in Cavia porcellus, daily oral dose 400 mg/kg, guinea pigs) was 80%. The “time after which ticks become moribund and die shortly thereafter” value (Dermacentor variabilis; method of Example 1, daily oral dose, guinea pigs) was “about 5 days”.
For CC(C)=CC1C(C(=O)OCc2cccc(Oc3ccccc3)c2)C1(C)C (stereo not shown) [cyclopropanecarboxylic acid, 2,2-dimethyl-3-(2-methylpropenyl)-m-phenoxybenzyl ester], the “ixodicidal results compared with those in the Examples” value [1] was “Results comparable to those in the Examples”.
For CC1(C)C(C=C(Cl)Cl)C1C(=O)OCc1cccc(Oc2ccccc2)c1 (stereo not shown) [drawing 8], the “% Control of Stable Flies” value (Stomoxys calcitrans; 25 mg/kg by gavage) was 36% and the “% Control of Stable Flies” value (Stomoxys calcitrans; 100 mg/kg by gavage) was 100%.
